Legend:
[1] = system: Vero (Cercopithecus aethiops kidney); assay: MTT-based viability assay, Vero; assay type: cell-based; settings: Chlorocebus sabaeus, MTT, 48 h, non-cancerous cells, read-out: IC50 [µM] Vero
Procedure: (§1) 3. The cytotoxicity of the newly obtained inhibitors, i.e., 1, 2, and 4 was tested towards four cell lines, i.e., CCRF-CEM (acute lymphoblastic leukemia ALL), MCF-7 (breast carcinoma), MDA-MB-231 (triple negative breast carcinoma), and Vero (Cercopithecus aethiops kidney).
(§2) The CCRF-CEM (acute lymphoblastic leukemia, ALL) and MDA-MB-231 (triple-negative breast adenocarcinoma) cell lines were obtained from the European Collection of Authenticated Cell Cultures (ECACC), while the MCF-7 (hormone-dependent breast adenocarcinoma) and Vero (Cercopithecus aethiops kidney) cell lines were purchased from the American Type Culture Collection (ATCC, Manassas, VA, USA). CCRF-CEM cells were maintained in RPMI-1640 medium, whereas MCF-7 and MDA-MB-231 cells were cultured in DMEM (Sigma-Aldrich Chemical Company, St. Louis, MO, USA). Vero cells were cultured in minimum essential medium eagle (MEM; Sigma-Aldrich). All media were supplemented with 10% fetal bovine serum (FBS), 2 mM L-glutamine, and antibiotics (100 U/mL penicillin and 100 µg/mL streptomycin) (Sigma-Aldrich). Cells were grown in 75-cm^2 culture flasks (Googlab Scientific, Rakocin, Poland) in a humidified atmosphere containing 5% CO2 at 37 °C. All experiments were performed using exponentially growing cultures. Stock solutions of the test compounds were prepared in DMSO and stored at –80 °C for up to one month.
(§3) Following incubation with the tested compounds, the MTT assay was carried out as previously described. Optical density was measured at 570 nm using a BioTek microplate reader (Winooski, VT, USA). All measurements were performed in at least three independent biological replicates.

[2] = system: CCRF-CEM cells; assay: annexin V/propidium iodide apoptosis, flow cytometry, CCRF-CEM; assay type: cell-based, human; settings: 48 h, annexin V binding
Procedure: The results obtained for CCRF-CEM and MCF-7 are shown in Figure 3 and Figure 4, respectively. […] 1, 79.6% of cells were apoptotic.
CCRF-CEM cells were seeded in 24-well plates at a density of 2 × 10^5 cells/mL. The cells were treated with the tested compounds at concentrations of 8, 16, and 32 µM, followed by incubation for 48 h. After treatment, the cells were harvested and processed according to the previously described protocol. Flow cytometric measurements were conducted within 1 h of cell labeling. Viable, necrotic, early apoptotic, and late apoptotic cells were identified using a BD Accuri C6 Plus flow cytometer and analyzed with BD Accuri C6 Plus software, version 1.0.34.1 (BD Biosciences, San Jose, CA, USA).

[3] = system: CK2 in MCF-7 cells (Ser529 in NF-κB p65); assay: Western blot of phosphorylated p65 (Ser529), intracellular CK2 inhibition, MCF-7; assay type: cell-based, human; settings: 8 µM, 24 h, untreated cells = 1
Procedure: (§4) After 24 h of treatment, we assessed site-specific phosphorylation of Ser529 in NF-κB p65 and Ser112 in BAD—a marker of PIM kinase activity—using Western blot analysis (Figure 8). The data for BAD confirmed intracellular inhibition of this kinase by the tested compounds in both cell lines in a dose-dependent manner. A statistically significant decrease in phosphorylated BAD was observed following treatment with 16 µM of compound 1, with relative protein levels reduced to 0.48 and 0.46 in CCRF-CEM and MCF-7 cells, respectively (Figure 8a–c).
(§5) Exponentially growing CCRF-CEM or MCF-7 cells were seeded at a density of 6 × 10^5 cells per 6 cm dish. Compounds were then added, with a final DMSO concentration of 0.5%. Cell lysates were prepared as previously described. The ECL substrate was used for signal detection, and the immunoblots were scanned using a G:BOX Chemi imaging system (Syngene, Cambridge, UK) equipped with GeneSys software, Version 1.4.3.0 (Syngene, Cambridge, UK).
(§6) For densitometric analysis, immunoblots were scanned using the G:BOX Chemi system (Syngene), and the band intensities of phosphorylated and total proteins were quantified with GeneSys software (Syngene, Cambridge, UK). The levels of phosphorylated proteins were normalized to GAPDH, with the value for untreated cells set to 1, and subsequently expressed as a percentage relative to the appropriate control.

[4] = system: MCF-7 (breast carcinoma); assay: MTT-based viability assay, MCF-7; assay type: cell-based, human
Procedure: as §1, §2, §3

[5] = system: MDA-MB-231 (breast carcinoma); assay: MTT-based viability assay, MDA-MB-231; assay type: cell-based, human
Procedure: as §1, §2, §3

[6] = system: CK2 in CCRF-CEM cells (Ser529 in NF-κB p65); assay: Western blot of phosphorylated p65 (Ser529), intracellular CK2 inhibition, CCRF-CEM; assay type: cell-based, human; settings: 16 µM, 24 h, untreated cells = 1
Procedure: as §4, §5, §6

[7] = system: CCRF-CEM (acute lymphoblastic leukemia); assay: MTT-based viability assay, CCRF-CEM; assay type: cell-based, human
Procedure: as §1, §2, §3

[8] = target: T1, PIM-1 kinase (Homo sapiens, UniProt P11309); assay: radiometric P81 filter isotopic kinase assay, PIM-1; assay type: biochemical
T1 construct: made in house
T1 sequence (P11309 whole entry): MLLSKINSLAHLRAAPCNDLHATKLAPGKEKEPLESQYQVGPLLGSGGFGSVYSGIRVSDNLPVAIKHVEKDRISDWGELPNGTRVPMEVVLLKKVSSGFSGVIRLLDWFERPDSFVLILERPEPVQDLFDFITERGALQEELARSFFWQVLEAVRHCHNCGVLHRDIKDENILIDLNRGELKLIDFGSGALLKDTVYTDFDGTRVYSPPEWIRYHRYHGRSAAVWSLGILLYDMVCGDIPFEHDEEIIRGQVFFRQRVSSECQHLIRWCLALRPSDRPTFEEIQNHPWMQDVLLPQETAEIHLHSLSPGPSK
Procedure: Synthetic peptide […] served as the substrate for CK2, while peptide […] was used as the substrate for PIM-1.
The synthesized compounds were evaluated for their inhibitory activity against human CK2α, the human CK2 holoenzyme, and PIM-1 using the P81 filter-based isotopic assay, as previously described. […] The experimental data were fitted to a dose–response curve using non-linear regression analysis (variable slope) Y = Bottom + (Top − Bottom)/(1 + 10^((LogIC50 − X) × HillSlope) equation in GraphPad Prism (Prism 9, version 9.0.1).

[9] = system: CCRF-CEM cells; assay: mitochondrial membrane potential (ΔΨm) JC-1 assay, CCRF-CEM; assay type: cell-based, human; settings: 48 h
Procedure: (§7) The mitochondrial membrane potential was evaluated by flow cytometry using 5,5′,6,6′-tetrachloro-1,1′,3,3′-tetraethylbenzimidazolocarbocyanine iodide (JC-1; Sigma-Aldrich), as previously described.

[10] = system: MCF-7 cells; assay: mitochondrial membrane potential (ΔΨm) JC-1 assay, MCF-7; assay type: cell-based, human; settings: 48 h
Procedure: as §7

[11] = IC50 for Vero/IC50 for cancer cells

- IC50 ([4]; Homo sapiens, MCF7, MTT, 48 h, read-out: IC50 [µM] MCF-7): 17.1 ± 2.07 µM
- IC50 ([5]; Homo sapiens, MDA-MB-231, MTT, 48 h, read-out: IC50 [µM] MDA-MB-231): 21.2 ± 0.76 µM
- IC50 ([7]; Homo sapiens, CCRF-CEM, MTT, 48 h, read-out: IC50 [µM] CCRF-CEM): 12.4 ± 0.82 µM
- IC50 [8]: 520 ± 20 nM
- remaining activity at 2 µM ([8]; cpd. concentration 2 μM, read-out: PIM-1 Residual Activity [%]): 22.4 ± 0.9%
- remaining activity at 5 µM ([8]; cpd. concentration 5 μM, read-out: PIM-1 Residual Activity [%]): 10.3 ± 0.7%
- remaining activity at 20 µM ([8]; cpd. concentration 20 μM, read-out: PIM-1 Residual Activity [%]): 2.9 ± 0.2%
Structure (SMILES): CC(=O)Cn1cnc2c(Br)c(Br)c(Br)c(Br)c21 [compound 1, 1-(4,5,6,7-tetrabromo-1H-benzimidazol-1-yl)propan-2-one]
- IC50 [1]: 20.2 ± 3.59 µM
- apoptotic CCRF-CEM cells ([2]; 8 µM): 23.5%
- apoptotic CCRF-CEM cells ([2]; 16 µM): 79.6%
- apoptotic CCRF-CEM cells ([2]; 32 µM): ~98%
- relative level of p65-P (Ser529), MCF-7 [3]: 0.84
- SI (selectivity index) MCF-7 [4, 11]: 1.18
- SI (selectivity index) MDA-MB-231 [5, 11]: 0.95
- relative level of phosphorylated p65 (Ser529), CCRF-CEM [6]: 0.46
- SI (selectivity index) CCRF-CEM [7, 11]: 1.62
- CCRF-CEM cells with reduced ΔΨm ([9]; 16 µM): 76%
- CCRF-CEM cells with reduced ΔΨm ([9]; 32 µM): 99.4%
- MCF-7 cells with reduced ΔΨm ([10]; 16 µM): 26%
- MCF-7 cells with reduced ΔΨm ([10]; 32 µM): 19%
